In patent US20160158307A1, “Potent and Efficient Cytotoxic Peptides and Antibody-Drug Conjugates thereof and Their Synthesis” (priority 2014, published 2016):
Numbered stars: 1 amine (or outer) side, 2 acyl side, 3 side chain; on linkers, the order of the positions; unused ones are H or OH. Square brackets hold non-standard residues; d marks the D form. Peptide text beside a SMILES is read from it. * marks the point of attachment. Dolaproine = CO[C@@H]([C@@H]1CCCN1)[C@@H](C)C(=O)O; X2 = CO[C@H](CC(=O)[*:2])[C@H](C1CCCC1)N(C)[*:1]; Dil = CC[C@H](C)[C@H](NC)[C@@H](CC(=O)O)OC; X1 = C[C@@H](N*)[C@@H](O)c1ccccc1; NMeV = CN[C@H](C(=O)O)C(C)C; Aib = CC(C)(N)C(=O)O; OtBu = CC(C)(C)O*

Experiments:
Format in all cases: cell-based, Human
Hela = test: In vitro cell assay (Cell Titer Glo), Hela; settings: 6 days exposure
Protocol: (§1) In vitro cell assay is performed in a 96 well micro titer plate. Human tumor cell lines Hela, A549, MCF-7, HCC-1954 and SK-BR-3 are obtained from ATCC (American Type Culture Collection).
The cells were harvested respectively during the logarithmic growth period and counted with hemocytometer. The cell viability was over 98% by trypan blue exclusion. 90 μl of cell suspensions were added in to 96-well plates, the final cell density was reached to 3000 cells/well. Plates were incubated for 96 hours at 37° C., and 5% CO2.
(§2) To each well was added 10 μL, of DMSO diluted compound (10×). For the sentinel base T0 plate, to each well was added 100 μL Cell Titer Gloand the luminescence signals with Envision reading were recorded.
(§3) […] Plates are read with Envision after adding Cell Titer Glo to each well. IC50 values were calculated using GraphPad Prism 5.

A549 = test: In vitro cell assay (Cell Titer Glo), A549
Protocol: as §1
The cells were harvested respectively during the logarithmic growth period and counted with hemocytometer. The cell viability was over 98% by trypan blue exclusion. 90 μl of cell suspensions were added in to 96-well plates, the final cell density was reached to 3000 cells/well. […]
as §2, §3

HCC1954 = test: In vitro cell assay (Cell Titer Glo), HCC1954; settings: 6 days exposure
Protocol: as §1
The cells were harvested respectively during the logarithmic growth period and counted with hemocytometer. […] 90 μl of cell suspensions were added in to 96-well plates, the final cell density was reached to 3000 cells/well. […]
as §2, §3

SK-BR-3 = test: In vitro cell assay (Cell Titer Glo), SK-BR-3; settings: 6 days exposure
Protocol: as §1
(§4) The cells were harvested respectively during the logarithmic growth period and counted with hemocytometer. […] 90 μl of cell suspensions were added in to 96-well plates, the final cell density was reached to 3000 cells/well. Plates were incubated for 96 hours at 37° C., and 5% CO2.
as §2, §3

MCF-7 = test: In vitro cell assay (Cell Titer Glo), MCF-7
Protocol: as §1, §4, §2, §3

[1] = Homo sapiens, HeLa, 144 h, Table 01
[2] = Homo sapiens, HCC1954, 144 h, Table 01
[3] = Homo sapiens, SK-BR-3, 144 h, Table 01
[4] = Table 3, payloads and related ADCs, Her2 positive
[5] = Homo sapiens, HeLa, 144 h, Table 2
[6] = Homo sapiens, HCC1954, 144 h, Table 2
[7] = Homo sapiens, SK-BR-3, 144 h, Table 2

`CN[C@H](C(=O)N[C@H](C(=O)N(C)[C@@H](C1CCCCC1)[C@@H](CC(=O)N1CCC[C@H]1[C@H](OC)[C@@H](C)C(=O)N[C@H](C)[C@@H](O)c1ccccc1)OC)C(C)C)C(C)C` [Compound 34] gave an IC50 (Hela; [1]) of 0.391 nM, an IC50 (A549; Homo sapiens, A549, Table 01) of 1.67 nM and an IC50 (HCC1954; [2]) of 0.192 nM. The IC50 (SK-BR-3; [3]) was 0.333 nM and the IC50 (MCF-7; Homo sapiens, MCF7, Table 01) was 1.44 nM.
Work on `CC[C@H](C)[C@@H]([C@@H](CC(=O)N1CCC[C@H]1[C@H](OC)[C@@H](C)C(=O)N[C@H](C)[C@@H](O)c1ccccc1)OC)N(C)C(=O)[C@@H](NC(=O)[C@@H](NC)C(C)C)C(C)C` [MMAE, monomethylauristatin E, reference compound] (H-[NMeV]V[Dil][Dolaproine]-X1) yielded an IC50 (Hela; Table 01) of 0.1 nM, an IC50 (A549; Table 01, 6 days exposure) of 0.518 nM and an IC50 (HCC1954; Table 01) of 0.073 nM. The IC50 (HCC1954; [4]) was 0.073 nM, the IC50 (SK-BR-3; Table 01) was 0.103 nM and the IC50 (SK-BR-3; [4]) was 0.103 nM. It also gave an IC50 (MCF-7; Table 01, 6 days exposure) of 0.321 nM and an IC50 (MCF-7; Table 3, payloads and related ADCs, 6 days exposure, does not over-express Her2) of 0.321 nM.
`CO[C@H]([C@@H](C)C(=O)N[C@@H](Cc1ccccc1)c1nccs1)[C@@H]1CCCN1C(=O)C[C@@H](OC)[C@H](C1CCCC1)N(C)C(=O)[C@@H](NC(=O)C(C)(C)N)C(C)C` [Compound 23] gave an IC50 (Hela; [5]) of 0.484 nM, an IC50 (A549; Homo sapiens, A549, Table 2) of 2.83 nM and an IC50 (HCC1954; [6]) of 0.405 nM. It also gave an IC50 (SK-BR-3; [7]) of 0.693 nM and an IC50 (MCF-7; Homo sapiens, MCF7, Table 2) of 2.9 nM.
Work on `CO[C@H]([C@@H](C)C(=O)N[C@H](C)[C@@H](O)c1ccccc1)[C@@H]1CCCN1C(=O)C[C@@H](OC)[C@H](C1CCCCC1)N(C)C(=O)[C@@H](NC(=O)C(C)(C)N)C(C)C` [Compound 18, (S)-2-(2-amino-2-methylpropanamido)-N-((1S,2R)-1-cyclohexyl-4-((S)-2-((1R,2R)-3-((1S,2R)-1-hydroxy-1-phenylpropan-2-ylamino)-1-methoxy-2-methyl-3-oxopropyl)pyrroli-din-1-yl)-2-methoxy-4-oxobutyl)-N,3-dimethylbutanamide] yielded an IC50 (Hela; [5]) of 0.478 nM, an IC50 (A549; Homo sapiens, A549, Table 2) of 1.14 nM and an IC50 (HCC1954; [6]) of 0.466 nM. The IC50 (SK-BR-3; [7]) was 0.805 nM and the IC50 (MCF-7; Homo sapiens, MCF7, Table 2) was 3.19 nM.
`CO[C@H]([C@@H](C)C(=O)N[C@@H](Cc1ccccc1)C(=O)OC(C)(C)C)[C@@H]1CCCN1C(=O)C[C@@H](OC)[C@H](C1CCCC1)N(C)C(=O)[C@@H](NC(=O)C(C)(C)N)C(C)C` [Compound 21, (S)-tert-butyl2-((2R,3R)-3-((S)-1-((3R,4S)-4-((S)-2-(2-amino-2-methylpropanamido)-N,3-dimethylbutanamido)-4-cyclopentyl-3-methoxybutanoyl)pyrrolidin-2-yl)-3-methoxy-2-methylpropanamido)-3-phenylpropanoate] (H-[Aib]V[X2][Dolaproine]F-OtBu) gave an IC50 (Hela; [5]) of 0.563 nM, an IC50 (A549; Homo sapiens, A549, Table 2) of 1.13 nM and an IC50 (HCC1954; [6]) of 0.296 nM. It also gave an IC50 (SK-BR-3; [7]) of 0.223 nM and an IC50 (MCF-7; Homo sapiens, MCF7, Table 2) of 1.3 nM.
In the case of `CO[C@H]([C@@H](C)C(=O)N[C@@H](Cc1ccccc1)c1nccs1)[C@@H]1CCCN1C(=O)C[C@@H](OC)[C@H](C1CCCCC1)N(C)C(=O)[C@@H](NC(=O)C(C)(C)N)C(C)C` [Compound 24, (S)-2-(2-amino-2-methylpropanamido)-N-((1S,2R)-1-cyclohexyl-2-methoxy-4-((S)-2-((1R,2R)-1-methoxy-2-methyl-3-oxo-3-((S)-2-phenyl-1-(thiazol-2-yl)ethylamino)propyl)pyrrolidin-1-yl)-4-oxobutyl)-N,3-dimethylbutanamide], the IC50 (Hela; [5]) is reported as 0.571 nM, the IC50 (A549; Homo sapiens, A549, Table 2) is reported as 3.34 nM and the IC50 (HCC1954; [6]) is reported as 0.31 nM. It also gave an IC50 (SK-BR-3; [7]) of 0.524 nM and an IC50 (MCF-7; Homo sapiens, MCF7, Table 2) of 1.99 nM.
With `CN[C@H](C(=O)N[C@H](C(=O)N(C)[C@@H](C1CCCCC1)[C@@H](CC(=O)N1CCC[C@H]1[C@H](OC)[C@@H](C)C(=O)N[C@@H](Cc1ccccc1)c1nccs1)OC)C(C)C)C(C)C` [Compound 36] the IC50 (Hela; [1]) was 0.143 nM, the IC50 (A549; Homo sapiens, A549, Table 01) was 0.567 nM and the IC50 (HCC1954; [2]) was 0.103 nM. The IC50 (SK-BR-3; [3]) was 0.197 nM and the IC50 (MCF-7; Homo sapiens, MCF7, Table 01) was 0.841 nM.
